Data published in patent US11597720B2, “Tetrahydronaphthalene and tetrahydroisoquinoline derivatives as estrogen receptor degraders” (Arvinas Operations, Inc., priority 2016, dated 2023).

Key:
[1] = biological target: T1, Estrogen receptor-alpha (ERα) (Homo sapiens, UniProt P03372); experiment: ERα degradation in T47D cells, western blot; assay type: cell-based; design: except that T47D cells were utilized instead of the MCF7 cells; endogenous in cells; host or cells: T47D cells; conditions: 7 concentrations 100 nM to 0.1 nM, 10% FBS, 72 hours
T1 sequence (P03372 1-595): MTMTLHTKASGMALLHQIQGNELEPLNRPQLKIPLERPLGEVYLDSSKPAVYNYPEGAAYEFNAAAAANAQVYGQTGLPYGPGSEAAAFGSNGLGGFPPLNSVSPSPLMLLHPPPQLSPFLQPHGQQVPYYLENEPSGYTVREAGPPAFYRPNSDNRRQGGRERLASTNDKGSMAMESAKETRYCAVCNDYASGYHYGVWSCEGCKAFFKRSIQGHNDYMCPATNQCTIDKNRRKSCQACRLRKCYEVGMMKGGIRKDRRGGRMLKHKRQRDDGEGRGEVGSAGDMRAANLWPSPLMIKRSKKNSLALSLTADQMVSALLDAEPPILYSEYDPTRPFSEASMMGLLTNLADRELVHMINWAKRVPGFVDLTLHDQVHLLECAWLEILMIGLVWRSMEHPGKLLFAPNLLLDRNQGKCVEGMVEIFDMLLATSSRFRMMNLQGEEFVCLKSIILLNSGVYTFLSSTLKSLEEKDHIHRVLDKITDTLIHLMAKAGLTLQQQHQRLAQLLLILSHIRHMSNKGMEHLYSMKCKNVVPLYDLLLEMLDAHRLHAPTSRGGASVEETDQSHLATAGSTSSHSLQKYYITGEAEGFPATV
Experimental: Compounds prepared in this application were also analyzed for their ability to degrade ERα in MCF7 and T47D cells.
Estrogen receptor-alpha (ERα) degradation assay in T47D cells using western blot method. The same protocol that was described above with MCF7 cells was utilized, except that T47D cells were utilized instead of the MCF7 cells.

[2] = biological target: T1, Estrogen receptor-alpha (ERα); experiment: ERα degradation in MCF-7 cells, western blot; assay type: cell-based; design: assessed for their activity in degrading ERα in MCF-7 cells via western blot; endogenous in cells; host or cells: MCF7 cells; conditions: 10% FBS; for Degradation of ERα in MCF7 cells (immunoblot, FIG. 2): 7 concentrations 100 nM to 0.1 nM, 48 hours
Experimental: FIG. 2 and FIG. 3 illustrate represent exemplary compounds from the western blot assay.
Estrogen receptor-alpha (ERα) degradation assay in MCF-7 cells using western blot method. The exemplary novel ERα degraders were assessed for their activity in degrading ERα in MCF-7 cells via western blot. The assay was carried out in the presence of 10% […] bovine serum (FBS) or high percentage of human or mouse serum.
MCF7 cells were grown in DMEM/F12 with 10% fetal bovine serum and seeded at 24,000 cells per well in 100 μl into 96-well clear tissue culture plates. The following day, the cells were treated with PROTACs in a 7-point concentration curve with 100 nM being the top concentration and serial dilutions to make the other concentrations (30 nM, 10 nM, 3 nM, 1 nM, and 0.3 nM). At all concentrations, 0.01% DMS is the final concentration in the well. […], washed with 50 μl of cold P1BS, The cells are lysed with 50 μl/well 4° (Cell Lysis Buffer (Catalog #9803; Cell Signaling Technology, Danvers, Mass.) (20 mM Tris-HCL (pH 7.5), 150 mM NaCl, 1 mM Na2EDTA, 1 mM EGTA, 1% Triton, 2.5 mM sodium pyrophosphate, 1 mM B-glycerophosphate, 1 mM sodium vanadate, 1 ug/ml leupeptin). Lysates were clarified at 16,000×g for 10 minutes, and 2 μg of protein was subjected to SDS-PAGE analysis and followed by immunoblotting according to standard protocols. The antibodies used were ERα (Cell Signaling Technologies Catalog #8644), and Tubulin (Sigma Catalog #T9026; St Louis, Mo.). Detection reagents were Clarity Western ECL substrate (Bio-Rad Catalog #170-5060; Hercules, Calif.).
Alternatively, MCF7 cells were grown in DMEM/F12 with 10% fetal bovine serum and seeded at 24,000 cells per well in 500 μl in 24-well clear tissue culture plates. The following day, the cells were treated with PROTACs in a 5-point concentration curve (100 nM, 33 nM, 11 nM, 3.7 nM, and 1.2 nM) in the presence of 0.01% DMSO, After 72 hours, the wells are aspirated and washed with 500 μl of PBS. The cells are lysed with 100 μl/well 4° C. […]

Row | Degradation of ERα in T47D cells (immunoblot, FIG. 4) [1] | Degradation of ERα in MCF7 cells (immunoblot, FIG. 2) [2] | Degradation of ERα in MCF7 cells (immunoblot, FIG. 3) ([2]; 5 concentrations 100 nM to 1.2 nM, 72 hours) | SMILES
1 | Degradation of ERα | Degradation of ERα | – | O=C1CCC(N2Cc3cc(N4CCN(CCCCCOc5ccc([C@@H]6c7ccc(O)cc7CC[C@@H]6c6ccccc6)cc5)CC4)ccc3C2=O)C(=O)N1 (stereo partly drawn) [Example 62, 3-{5-[4-(5-{4-[(1R,2S)-6-hydroxy-2-phenyl-1,2,3,4-tetrahydronaphthalen-1-yl]phenoxy}pentyl)piperazin-1-yl]-1-oxo-2,3-dihydro-1H-isoindol-2-yl}piperidine-2,6-dione]
2 | – | – | Degradation of ERα | O=C1CCC(N2Cc3cc(N4CCN(CC5CCN(c6ccc([C@@H]7c8ccc(O)cc8CC[C@@H]7c7ccccc7)cc6)CC5)CC4)ccc3C2=O)C(=O)N1 (stereo partly drawn) [Example 341, 3-[5-[4-[[1-[4-[(1R, 2S)-6-hydroxy-2-phenyl-tetralin-1-yl]phenyl]-4-piperidyl]methyl]piperazin-1-yl]-1-oxo-isoindolin-2-yl]piperidine-2,6-dione]
3 | Degradation of ERα | Degradation of ERα | – | Cc1ncsc1-c1ccc(CNC(=O)[C@@H]2C[C@@H](O)CN2C(=O)[C@@H](NC(=O)COCCN2CCN(CCOc3ccc([C@@H]4c5ccc(O)cc5CC[C@@H]4c4ccccc4)cc3)CC2)C(C)(C)C)cc1 [Example 1, (2S,4R)-4-hydroxy-1-[(2S)-2-(2-{2-[4-(2-{4-[(1R,2S)-6-hydroxy-2-phenyl-1,2,3,4-tetrahydronaphthalen-1-yl]phenoxy}ethyl)piperazin-1-yl]ethoxy}acetamido)-3,3-dimethylbutanoyl]-N-{[4-(4-methyl-1,3-thiazol-5-yl)phenyl]methyl}pyrrolidine-2-carboxamide]
